Here are results for 35 molecules from patent US20240083853A1, “HSD17B13 INHIBITORS AND USES THEREOF” (FL2022-001, Inc., priority 2020, published 2024).

The structures appear in SMILES notation. pIC50: −log10 of the molar value.

The test concerns the target T1, Recombinant human HSD17B13 enzyme (Homo sapiens, UniProt Q7Z5P4).
T1 sequence (Q7Z5P4 20-300): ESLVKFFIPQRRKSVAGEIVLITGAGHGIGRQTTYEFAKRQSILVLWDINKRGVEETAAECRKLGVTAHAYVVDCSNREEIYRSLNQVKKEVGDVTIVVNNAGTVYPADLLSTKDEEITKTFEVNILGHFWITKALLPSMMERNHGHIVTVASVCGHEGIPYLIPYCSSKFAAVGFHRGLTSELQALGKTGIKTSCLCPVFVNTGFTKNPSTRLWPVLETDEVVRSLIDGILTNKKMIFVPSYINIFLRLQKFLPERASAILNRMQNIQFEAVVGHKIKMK
Kind of test: HSD17b13 NAD(P)H-Glo biochemical assay. To be noted: for inhibition at 10 µM: 3 h, at 10 uM compound, read-out: HSD17β13 % at 10 uM; for pIC50: 50 uM estradiol, 1 mM NAD+, NAD(P)H-Glo luminescence, read-out: HSD17β13 IC50. Put shortly:
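Luminescent NAD(P)H-Glo read-out, taken after 1 hour at RT, measured cofactor reduction. Substrate and cofactor were estradiol at 50 uM and NAD+ at 1 mM final, reacted with the recombinant human enzyme for 3 hours at 37° C in 20 mM Tris pH7.4, 0.002% Tween-20, 0.02% BSA. Compound was pre-incubated with enzyme for 20 minutes at RT.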

As usually defined, the pIC50 is the IC50 on a negative log10 scale, so that one unit is a factor of ten.

On to `CS(=O)(=O)N1CCN(c2ccc(-n3ncc4cc(F)c(O)nc43)cc2)CC1` [Compound 25.3, 5-Fluoro-1-(4-(4-(methylsulfonyl)piperazin-1-yl)phenyl)-1H-pyrazolo[3,4-b]pyridin-6-ol], for which the inhibition at 10 µM is 35%.

For `CC1(C)CCN(c2ccc(-n3ncc4cnc(O)c(F)c43)cc2)CC1` [Compound 25.4, 1-(4-(4,4-Dimethylpiperidin-1-yl)phenyl)-7-fluoro-1H-pyrazolo[4,3-c]pyridin-6-ol], the inhibition at 10 µM was less than 20%.

For the molecule `CS(=O)(=O)N1CCN(c2ccc(-n3ncc4cnc(O)c(F)c43)cc2)CC1` [Compound 25.5, 7-Fluoro-1-(4-(4-(methylsulfonyl)piperazin-1-yl)phenyl)-1H-pyrazolo[4,3-c]pyridin-6-ol], the inhibition at 10 µM is less than 20%.

In the case of `Cc1c(O)c(F)cc2cnn(-c3ccc(N4CCC(C)(C)CC4)cc3)c12` [Compound 25.6, 1-(4-(4,4-Dimethylpiperidin-1-yl)phenyl)-5-fluoro-7-methyl-1H-indazol-6-ol], the pIC50 is greater than 7.00.

On to `CC1(C)CCN(c2ccc(-n3ncc4cc(F)c(O)c(F)c43)cn2)CC1` [Compound 26, 1-(6-(4,4-Dimethylpiperidin-1-yl)pyridin-3-yl)-5,7-difluoro-1H-indazol-6-ol], for which the pIC50 is greater than 7.00.

As for `Oc1c(F)cc2cnn(-c3ccc(N4CCC5(CCO5)CC4)cc3)c2c1F` [Compound 26.1, 1-(4-(1-Oxa-7-azaspiro[3.5]nonan-7-yl)phenyl)-5,7-difluoro-1H-indazol-6-ol], the negative-log IC50 (pIC50) was 6.00 to 7.00.

Consider `CS(=O)(=O)N1CCN(c2ccc(-n3ncc4cc(F)c(O)c(F)c43)cn2)CC1` [Compound 26.2, 5,7-Difluoro-1-(6-(4-(methylsulfonyl)piperazin-1-yl)pyridin-3-yl)-1H-indazol-6-ol], for which the pIC50 is 6.00 to 7.00.

Regarding `CC1(C)CCN(c2ccc(-n3ncc4cc(F)c(O)c(F)c43)nc2)CC1` [Compound 26.3, 1-(5-(4,4-Dimethylpiperidin-1-yl)pyridin-2-yl)-5,7-difluoro-1H-indazol-6-ol], the pIC50 was greater than 7.00.

With `CS(=O)(=O)N1CCN(c2ccc(-n3ncc4cc(F)c(O)c(F)c43)nc2)CC1` [Compound 26.4, 5,7-Difluoro-1-(5-(4-(methylsulfonyl)piperazin-1-yl)pyridin-2-yl)-1H-indazol-6-ol], the pIC50 was 4.52 to 6.00.

For `CS(=O)(=O)N1CCN(c2ccc(-n3ncc4ccc(O)cc43)cc2)CC1` [Compound 26.5, 1-(4-(4-(Methylsulfonyl)piperazin-1-yl)phenyl)-1H-indazol-6-ol], the inhibition at 10 µM is 35%.

For the molecule `CC1(C)CCN(c2cnc(-n3ncc4cc(F)c(O)c(F)c43)cn2)CC1` [Compound 26.6, 1-(5-(4,4-Dimethylpiperidin-1-yl)pyrazin-2-yl)-5,7-difluoro-1H-indazol-6-ol], the pIC50 is greater than 7.00.

As for `CS(=O)(=O)N1CCN(c2cnc(-n3ncc4cc(F)c(O)c(F)c43)cn2)CC1` [Compound 26.7, 5,7-Difluoro-1-(5-(4-(methylsulfonyl)piperazin-1-yl)pyrazin-2-yl)-1H-indazol-6-ol], the pIC50 was 6.00 to 7.00.

Regarding `CC1(C)CCN(c2cnc(-n3ncc4cc(F)c(O)c(F)c43)nc2)CC1` [Compound 26.8, 1-(5-(4,4-Dimethylpiperidin-1-yl)pyrimidin-2-yl)-5,7-difluoro-1H-indazol-6-ol], the pIC50 is 6.00 to 7.00.

For the molecule `CS(=O)(=O)N1CCN(c2cnc(-n3ncc4cc(F)c(O)c(F)c43)nc2)CC1` [Compound 26.9, 5,7-Difluoro-1-(5-(4-(methylsulfonyl)piperazin-1-yl)pyrimidin-2-yl)-1H-indazol-6-ol], the pIC50 is 6.00 to 7.00.

Regarding `CC1(C)CCN(c2ccc(-n3ncc4cc(F)c(O)c(C#N)c43)cc2)CC1` [Compound 26.10, 1-(4-(4,4-Dimethylpiperidin-1-yl)phenyl)-5-fluoro-6-hydroxy-1H-indazole-7-carbonitrile], the pIC50 is 6.00 to 7.00.

Take `CC1(C)CCN(c2ccc(-n3nnc4cc(F)c(O)c(F)c43)cn2)CC1` [Compound 26.11, 1-(6-(4,4-Dimethylpiperidin-1-yl)pyridin-3-yl)-5,7-difluoro-1H-benzo[d][1,2,3]triazol-6-ol]: the pIC50 was greater than 7.00.

As to `Oc1c(F)cc2nnn(-c3ccc(N4CC5(CCOCC5)C4)nc3)c2c1F` [Compound 26.12, 1-(6-(7-Oxa-2-azaspiro[3.5]nonan-2-yl)pyridin-3-yl)-5,7-difluoro-1H-benzo[d][1,2,3]triazol-6-ol], the pIC50 is 6.00 to 7.00.

Turning to `CS(=O)(=O)N1CCN(c2ccc(-n3nnc4cc(F)c(O)c(F)c43)cn2)CC1` [Compound 26.13, 5,7-Difluoro-1-(6-(4-(methylsulfonyl)piperazin-1-yl)pyridin-3-yl)-1H-benzo[d][1,2,3]triazol-6-ol], the pIC50 was 6.00 to 7.00.

For `CC1(C)CCN(c2ccc(-n3nnc4cc(F)c(O)c(F)c43)nc2)CC1` [Compound 26.14, 1-(5-(4,4-Dimethylpiperidin-1-yl)pyridin-2-yl)-5,7-difluoro-1H-benzo[d][1,2,3]triazol-6-ol], the pIC50 is greater than 7.00.

Take `Oc1c(F)cc2nnn(-c3ccc(N4CC5(CCOCC5)C4)cn3)c2c1F` [Compound 26.15, 1-(5-(7-Oxa-2-azaspiro[3.5]nonan-2-yl)pyridin-2-yl)-5,7-difluoro-1H-benzo[d][1,2,3]triazol-6-ol]: the pIC50 is 6.00 to 7.00.

`CS(=O)(=O)N1CCN(c2ccc(-n3nnc4cc(F)c(O)c(F)c43)nc2)CC1` [Compound 26.16, 5,7-Difluoro-1-(5-(4-(methylsulfonyl)piperazin-1-yl)pyridin-2-yl)-1H-benzo[d][1,2,3]triazol-6-ol]: the pIC50 was 6.00 to 7.00.

For the molecule `CC1(C)CCN(c2cnc(-n3nnc4cc(F)c(O)c(F)c43)cn2)CC1` [Compound 26.17, 1-(5-(4,4-Dimethylpiperidin-1-yl)pyrazin-2-yl)-5,7-difluoro-1H-benzo[d][1,2,3]triazol-6-ol], the pIC50 is greater than 7.00.

With `Oc1c(F)cc2nnn(-c3cnc(N4CC5(CCOCC5)C4)cn3)c2c1F` [Compound 26.18, 1-(5-(7-Oxa-2-azaspiro[3.5]nonan-2-yl)pyrazin-2-yl)-5,7-difluoro-1H-benzo[d][1,2,3]triazol-6-ol], the pIC50 was 6.00 to 7.00.

As to `CS(=O)(=O)N1CCN(c2cnc(-n3nnc4cc(F)c(O)c(F)c43)cn2)CC1` [Compound 26.19, 5,7-Difluoro-1-(5-(4-(methylsulfonyl)piperazin-1-yl)pyrazin-2-yl)-1H-benzo[d][1,2,3]triazol-6-ol], the pIC50 is 6.00 to 7.00.

As to `CC1(C)CCN(c2cnc(-n3nnc4cc(F)c(O)c(F)c43)nc2)CC1` [Compound 26.20, 1-(5-(4,4-Dimethylpiperidin-1-yl)pyrimidin-2-yl)-5,7-difluoro-1H-benzo[d][1,2,3]triazol-6-ol], the pIC50 was greater than 7.00.

Consider `Oc1c(F)cc2nnn(-c3ncc(N4CC5(CCOCC5)C4)cn3)c2c1F` [Compound 26.21, 1-(5-(7-Oxa-2-azaspiro[3.5]nonan-2-yl)pyrimidin-2-yl)-5,7-difluoro-1H-benzo[d][1,2,3]triazol-6-ol], for which the pIC50 was 6.00 to 7.00.

With `CS(=O)(=O)N1CCN(c2cnc(-n3nnc4cc(F)c(O)c(F)c43)nc2)CC1` [Compound 26.22, 5,7-Difluoro-1-(5-(4-(methylsulfonyl)piperazin-1-yl)pyrimidin-2-yl)-1H-benzo[d][1,2,3]triazol-6-ol], the inhibition at 10 µM was 45%.

On to `CC1(C)CCN(c2ccc(-n3nnc4cc(F)c(O)c(F)c43)nn2)CC1` [Compound 26.23, 1-(6-(4,4-Dimethylpiperidin-1-yl)pyridazin-3-yl)-5,7-difluoro-1H-benzo[d][1,2,3]triazol-6-ol], for which the pIC50 was 6.00 to 7.00.

For the molecule `Oc1c(F)cc2nnn(-c3ccc(N4CC5(CCOCC5)C4)nn3)c2c1F` [Compound 26.24, 1-(6-(7-Oxa-2-azaspiro[3.5]nonan-2-yl)pyridazin-3-yl)-5,7-difluoro-1H-benzo[d][1,2,3]triazol-6-ol], the pIC50 is 4.52 to 6.00.

As for `CS(=O)(=O)N1CCN(c2ccc(-n3nnc4cc(F)c(O)c(F)c43)nn2)CC1` [Compound 26.25, 5,7-Difluoro-1-(6-(4-(methylsulfonyl)piperazin-1-yl)pyridazin-3-yl)-1H-benzo[d][1,2,3]triazol-6-ol], the pIC50 was 4.52 to 6.00.

In the case of `Oc1c(F)cc2nnn(-c3ccc(N4CCO[C@@H](c5ccccc5)C4)cc3)c2c1F` [Compound 26.26, (S)-5,7-Difluoro-1-(4-(2-phenylmorpholino)phenyl)-1H-benzo[d][1,2,3]triazol-6-ol], the pIC50 is 6.00 to 7.00.

`Oc1c(F)cc2nnn(-c3ccc(N4CCO[C@H](c5ccccc5)C4)cc3)c2c1F` [Compound 26.27, (R)-5,7-Difluoro-1-(4-(2-phenylmorpholino)phenyl)-1H-benzo[d][1,2,3]triazol-6-ol]: the pIC50 is 6.00 to 7.00.

As for `Oc1c(F)cc2nnn(-c3ccc(N4CCOC[C@H]4c4ccccc4)cc3)c2c1F` [Compound 26.28, (R)-5,7-Difluoro-1-(4-(3-phenylmorpholino)phenyl)-1H-benzo[d][1,2,3]triazol-6-ol], the pIC50 was 6.00 to 7.00.

Turning to `Oc1c(F)cc2nnn(-c3ccc(N4CCOC[C@@H]4c4ccccc4)cc3)c2c1F` [Compound 26.29, (S)-5,7-Difluoro-1-(4-(3-phenylmorpholino)phenyl)-1H-benzo[d][1,2,3]triazol-6-ol], the pIC50 is 6.00 to 7.00.

With `CC1(C)CCC(c2ccc(-n3ncc4cc(F)c(O)c(F)c43)cc2)CC1` [Compound 27, 1-(4-(4,4-Dimethylcyclohexyl)phenyl)-5,7-difluoro-1H-indazol-6-ol], the pIC50 was greater than 7.00.
